Tests used:
[1] = target: FLNA interactions with CXCR4, CD4 and CCR5 (Homo sapiens, UniProt P21333); test: FLNA interactions with CXCR4, CD4 and CCR5 in lymphocytes (western blot); conditions: 1 nM; lymphocytes of Ab42-treated young control subject and of AD patient
[2] = system: mild-to-moderate AD patients; test: Clinical studies of sumifilam in Alzheimer's disease patients; format: in vivo, human
Text: FIG. 7, in two panels as FIGS. 7A and 7B, graphically illustrates some of the results of a Phase 2b Clinical study of the effects of Compound C0105, now known as sumifilam, on 64 mild-to-moderate AD patients, mini-mental state examination (MMSE) value of ≥16≤26, age 50-85 years, with a key inclusion at screening of CFS Total tau/ab≥0.28. The patients were divided into three groups, and each group was given one of three tablet dosages twice daily for 28 days. One patient group received a placebo, another received tablets containing 50 mg of sumifilam and the third received tablets containing 100 mg of sumifilam. Lumbar puncture screening of CFS and blood were taken prior to any administration and at day 28. […] FIG. 7B repeats the results shown in FIG. 7A and includes results for the additional neuroinflammation markers YKL-40 (a glycoprotein produced by inflammatory, cancer and stem cells), interleukin-6 (IL-6), soluble triggering receptor expressed on myeloid cells 2 (sTREM2), albumin (a marker for blood-brain-barrier permeability) and IgG antibodies. Stronger significance levels occurred in the 100 mg group. Data are means±SEM. *p≤0.0001, #p≤0.001, †p<0.01 and +p<0.05 versus placebo. N=22, 18 and 19 for placebo, 50 mg and 100 mg, respectively. […]

tau = test: Tau phosphorylation in human postmortem frontal cortex slices; format: cell-based; conditions: 1 or 10 nM compound
Procedure: (§1) As will be seen from examination of FIG. 3 and FIG. 4, the ratio of TLR2 to FLNA increased with administration of each of LTA-SA, PGN-SA and Ab42 at a statistically significant amount relative to the control (p<0.01). Those changes in expression of TLR2 relative to FLNA were each inhibited by the presence of the 1 or 10 nM Compound C0105 at a statistically significant amount relative to the control (p<0.01) and relative to the ligand used. See, FIG. 3B.
A slight inhibition (about 25% or less) of that enhanced tau phosphorylation was provided by contacting the cells with 1 or 10 nM Compound C0105. […] See, FIGS. 4A and 4B.
The levels of phosphorylated tau (pSer202tau, pThr231tau and pThr181tau) as well as total tau precipitated (loading controls) are assessed by Western blotting using specific antibodies directed against each of the phosphor-epitopes and the anti-tau, respectively.

FLNA-TLR2 association = target: T1, FLNA-TLR2 association (Homo sapiens, UniProt P21333); test: FLNA-TLR2 association in human postmortem frontal cortex slices; format: cell-based; conditions: 1 or 10 nM compound; LTA-SA, PGN-SA or Ab42; p<0.01
T1 construct: Human postmortem frontal cortex slices; from tissue; host or cells: human postmortem frontal cortex slices
T1 sequence (P21333 2-2647 limits assumed): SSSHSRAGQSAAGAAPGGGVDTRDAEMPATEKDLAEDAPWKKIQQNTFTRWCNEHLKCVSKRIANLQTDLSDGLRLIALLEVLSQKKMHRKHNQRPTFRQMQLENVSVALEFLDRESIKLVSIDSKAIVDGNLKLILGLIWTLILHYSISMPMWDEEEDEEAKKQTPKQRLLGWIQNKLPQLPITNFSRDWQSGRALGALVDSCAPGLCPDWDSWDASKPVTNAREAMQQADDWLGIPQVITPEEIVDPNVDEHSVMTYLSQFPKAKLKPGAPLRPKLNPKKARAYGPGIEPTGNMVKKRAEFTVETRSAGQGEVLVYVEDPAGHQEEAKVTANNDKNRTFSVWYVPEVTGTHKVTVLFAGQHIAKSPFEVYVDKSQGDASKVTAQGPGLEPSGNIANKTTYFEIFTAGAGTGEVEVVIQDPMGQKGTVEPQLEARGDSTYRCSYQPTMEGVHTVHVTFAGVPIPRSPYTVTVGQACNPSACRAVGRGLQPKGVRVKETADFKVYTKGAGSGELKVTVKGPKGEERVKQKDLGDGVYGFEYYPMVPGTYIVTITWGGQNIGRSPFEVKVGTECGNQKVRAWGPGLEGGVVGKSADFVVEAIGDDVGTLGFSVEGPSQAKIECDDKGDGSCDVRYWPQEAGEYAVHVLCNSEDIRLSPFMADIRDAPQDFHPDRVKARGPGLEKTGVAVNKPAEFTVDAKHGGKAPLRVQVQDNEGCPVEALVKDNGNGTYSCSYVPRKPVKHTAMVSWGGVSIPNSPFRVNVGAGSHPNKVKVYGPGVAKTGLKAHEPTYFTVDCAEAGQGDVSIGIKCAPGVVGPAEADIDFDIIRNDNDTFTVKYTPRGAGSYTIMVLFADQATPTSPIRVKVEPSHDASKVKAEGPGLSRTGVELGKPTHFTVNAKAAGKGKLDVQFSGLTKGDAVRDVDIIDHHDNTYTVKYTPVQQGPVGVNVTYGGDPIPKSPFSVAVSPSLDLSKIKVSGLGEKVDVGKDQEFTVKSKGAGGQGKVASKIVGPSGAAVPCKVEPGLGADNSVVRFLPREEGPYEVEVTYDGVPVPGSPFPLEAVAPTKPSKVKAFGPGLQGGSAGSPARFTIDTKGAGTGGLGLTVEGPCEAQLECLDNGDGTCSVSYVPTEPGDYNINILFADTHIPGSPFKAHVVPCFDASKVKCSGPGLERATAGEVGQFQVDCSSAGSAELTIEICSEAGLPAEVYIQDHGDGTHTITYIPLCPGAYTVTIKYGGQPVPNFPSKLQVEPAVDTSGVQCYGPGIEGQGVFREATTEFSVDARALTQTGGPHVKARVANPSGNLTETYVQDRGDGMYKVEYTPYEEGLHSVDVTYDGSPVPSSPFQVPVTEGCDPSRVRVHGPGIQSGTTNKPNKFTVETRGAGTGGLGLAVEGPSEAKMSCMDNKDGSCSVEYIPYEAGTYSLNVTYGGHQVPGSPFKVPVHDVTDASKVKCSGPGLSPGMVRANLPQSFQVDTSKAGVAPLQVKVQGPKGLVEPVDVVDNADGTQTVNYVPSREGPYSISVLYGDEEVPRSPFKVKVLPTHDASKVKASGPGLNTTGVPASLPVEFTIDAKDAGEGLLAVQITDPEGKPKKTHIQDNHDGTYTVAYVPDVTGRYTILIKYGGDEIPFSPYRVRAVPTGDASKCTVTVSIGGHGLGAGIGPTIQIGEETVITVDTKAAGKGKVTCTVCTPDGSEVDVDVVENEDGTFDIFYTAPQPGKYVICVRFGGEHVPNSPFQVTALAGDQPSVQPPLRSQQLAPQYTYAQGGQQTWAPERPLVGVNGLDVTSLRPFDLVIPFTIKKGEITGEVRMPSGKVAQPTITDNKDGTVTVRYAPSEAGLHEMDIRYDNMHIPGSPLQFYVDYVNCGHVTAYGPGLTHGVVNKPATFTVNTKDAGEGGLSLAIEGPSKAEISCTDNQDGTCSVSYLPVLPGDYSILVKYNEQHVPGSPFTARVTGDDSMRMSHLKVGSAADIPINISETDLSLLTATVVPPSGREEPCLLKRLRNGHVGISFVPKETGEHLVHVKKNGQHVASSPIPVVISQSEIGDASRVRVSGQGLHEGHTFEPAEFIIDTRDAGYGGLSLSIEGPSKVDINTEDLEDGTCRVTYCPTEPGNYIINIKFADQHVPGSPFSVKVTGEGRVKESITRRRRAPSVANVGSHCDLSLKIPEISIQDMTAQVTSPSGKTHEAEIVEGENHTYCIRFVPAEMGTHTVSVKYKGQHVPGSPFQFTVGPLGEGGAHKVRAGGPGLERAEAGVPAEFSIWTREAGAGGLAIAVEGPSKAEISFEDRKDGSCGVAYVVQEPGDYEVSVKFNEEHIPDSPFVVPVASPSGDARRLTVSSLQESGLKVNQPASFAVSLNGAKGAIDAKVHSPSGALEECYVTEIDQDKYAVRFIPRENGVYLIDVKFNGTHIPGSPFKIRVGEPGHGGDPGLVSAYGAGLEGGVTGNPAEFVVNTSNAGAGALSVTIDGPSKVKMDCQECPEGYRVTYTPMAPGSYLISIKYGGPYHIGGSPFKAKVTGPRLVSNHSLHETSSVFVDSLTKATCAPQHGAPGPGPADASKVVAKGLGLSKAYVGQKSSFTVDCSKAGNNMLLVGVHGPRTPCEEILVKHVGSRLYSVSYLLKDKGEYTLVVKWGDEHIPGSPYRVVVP
Procedure: as §1
Postmortem frontal cortex tissues were gradually thawed (from −80° C. to −20° C.) and were sliced using a chilled McIlwain tissue chopper ([…]). […]
The resultant immunocomplexes were pelleted by centrifugation at 4° C. […] The content of a7nAChRs in 50% of the obtained anti-Ab42 immunoprecipitate was determined by Western blotting with monoclonal anti-a7nAChR antibodies. […]
The content of b-actin in resultant immunoprecipitates is then analyzed by immunoblotting using monoclonal anti-b-actin to illustrate even immunoprecipitation efficiency and loading. […]

Chain of FLNA interactions with CXCR4, CD4 and CCR5 (P21333 2-2647 limits assumed): as above

In the case of `CN1CCC2(CC1)NCC(=O)N2Cc1ccccc1` [Compound C0105M], the “FLNA linkages with CXCR4, CD4 and CCR5 (in words)” value [1] is reported as “reduced these linkages”, the “Immunoinflammatory cytokines in treated patients” value ([2]; 50 or 100 mg twice daily, 28-day and 6-month studies) is reported as “reduction in the immunoinflammatory cytokines” and the “Amount of HMGB1 in CSF” value ([2]; Phase 2b, 50 mg or 100 mg tablets twice daily for 28 days, p<0.001 relative to placebo) is reported as “decreased significantly”. For the same compound, the “Inhibition of LTA-SA- or PGN-SA-enhanced tau phosphorylation” value (tau) was ≤ 25%, the “Ab42-induced tau phosphorylation (in words)” value (tau; 0.1 micromolar Ab42) was “statistically significant reduction” and the “Ligand-induced change in TLR2 relative to FLNA (TLR2/FLNA ratio)” value (FLNA-TLR2 association) was “inhibited”.

From US20220233512A1, “INHIBITING AN IMMUNE RESPONSE MEDIATED BY ONE OR MORE OF TLR2, RAGE, CCR5, CXCR4 AND CD4” (priority 2020, published 2022)
